The values below come from patent US9138494B2, “Radiolabeled PDE10A ligands” (AbbVie Inc., priority 2011, dated 2015).

One data set concerns the target PDE10A (Homo sapiens, UniProt Q9Y233). Description: PDE enzymatic inhibition assay (HTRF cAMP kit). Type of data set: biochemical. Particulars: recombinant PDE10, 20 nM substrate, 60 minutes at 29° C. How it is done: Recombinant PDE proteins were used in in vitro enzymatic reaction for measurement of PDE activity. […] The enzymatic activity of PDEs was determined by cAMP measurement kit from CisBio (IBA) using HTRF technology. The PDE enzymatic reaction was carried out in assay buffer (20 mM Tris-HCl pH7.5, 10 mM MgCl2, 0.1% bovine serum albumin) containing enzyme and substrate. The PDE enzymes concentration ranged from 10 pM-250 pM, depending on each enzyme's specific activity. […] The inhibitory effect of compound was determined by incubating various concentration of inhibitor in the enzymatic assay. […] Next, the compound at varying concentration was mixed with PDE enzyme. The reaction was initiated by addition of cyclic nucleotide substrate, and incubated for 60 minutes at 29° C. The reaction was stopped by addition of lysis buffer from assay kit. The cAMP-d2 and anti-cAMP cryptate in the lysis buffer detected the level of cAMP left from the PDE hydrolysis reaction. […] Thus, IC50 value of inhibitor can be obtained by plotting inhibitor concentration against PDE activity at that concentration.

Data set [1] in a line: Rat PK (0.05 mg/kg, iv), free brain concentration and free B/P. Type of data set: in vivo.
A further data set has as its target P-gp (Homo sapiens (Human), UniProt P08183). Description: MDCK-MDR1 assay, Efflux Ratio (P-gp). In kind it is in vitro ADME. As to conditions: dog; MDCK-MDR1 cells.
Data set [2] in a line: log D determined by shake flask method. Type of data set: physicochemical. As to conditions: read-out: SF log D.
Another data set can be described thus: Rat hepatocyte half-life. In kind it is in vitro ADME. Particulars: hepatocytes; rat (R); read-out: Hepatocyte T1/2.
Data set [3] is described as follows: Human hepatocyte half-life. Type of data set: in vitro ADME. Particulars: for half-life: hepatocytes, human (H), read-out: Hepatocyte T1/2.
Data set [4] is described as follows: Monkey microsome half-life. In kind it is in vitro ADME. As to conditions: monkey microsomes; read-out: Monkey Microsome T1/2.
Data set [5] deals with rats. Particulars: cited from earlier work.
In data set [6] the test system is rats. Particulars: cited from earlier work. The source holds these as a separate data set.
Data set [7] relates to rats. Particulars: cited from earlier work. The source holds these as a separate data set.

Sequence of PDE10A (Q9Y233 whole entry, looked up): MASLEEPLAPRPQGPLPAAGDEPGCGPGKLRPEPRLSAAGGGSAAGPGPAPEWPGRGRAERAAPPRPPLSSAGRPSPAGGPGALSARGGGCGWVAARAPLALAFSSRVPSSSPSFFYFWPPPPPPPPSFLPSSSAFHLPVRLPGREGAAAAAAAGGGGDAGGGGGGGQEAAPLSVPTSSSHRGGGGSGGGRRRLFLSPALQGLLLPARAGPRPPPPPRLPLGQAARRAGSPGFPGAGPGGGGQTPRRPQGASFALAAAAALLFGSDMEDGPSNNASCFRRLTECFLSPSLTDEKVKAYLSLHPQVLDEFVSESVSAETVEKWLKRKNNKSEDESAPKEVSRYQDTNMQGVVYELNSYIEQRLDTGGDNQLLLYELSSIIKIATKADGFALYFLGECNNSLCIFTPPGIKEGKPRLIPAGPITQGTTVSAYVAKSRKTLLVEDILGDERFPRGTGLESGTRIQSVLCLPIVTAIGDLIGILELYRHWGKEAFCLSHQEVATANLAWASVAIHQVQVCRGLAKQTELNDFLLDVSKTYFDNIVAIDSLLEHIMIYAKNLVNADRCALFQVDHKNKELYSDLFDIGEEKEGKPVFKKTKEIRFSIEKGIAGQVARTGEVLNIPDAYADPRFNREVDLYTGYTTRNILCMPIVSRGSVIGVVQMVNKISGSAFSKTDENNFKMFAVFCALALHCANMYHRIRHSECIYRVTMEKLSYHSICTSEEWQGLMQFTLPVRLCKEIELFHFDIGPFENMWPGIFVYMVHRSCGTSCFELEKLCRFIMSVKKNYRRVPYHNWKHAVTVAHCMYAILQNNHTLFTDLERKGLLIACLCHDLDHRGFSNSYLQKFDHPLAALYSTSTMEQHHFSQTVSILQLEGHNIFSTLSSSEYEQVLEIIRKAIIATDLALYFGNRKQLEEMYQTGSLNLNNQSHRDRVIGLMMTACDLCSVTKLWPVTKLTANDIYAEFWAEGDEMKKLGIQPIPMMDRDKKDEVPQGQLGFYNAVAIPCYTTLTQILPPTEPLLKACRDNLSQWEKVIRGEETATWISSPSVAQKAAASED
Sequence of P-gp (P08183 whole entry): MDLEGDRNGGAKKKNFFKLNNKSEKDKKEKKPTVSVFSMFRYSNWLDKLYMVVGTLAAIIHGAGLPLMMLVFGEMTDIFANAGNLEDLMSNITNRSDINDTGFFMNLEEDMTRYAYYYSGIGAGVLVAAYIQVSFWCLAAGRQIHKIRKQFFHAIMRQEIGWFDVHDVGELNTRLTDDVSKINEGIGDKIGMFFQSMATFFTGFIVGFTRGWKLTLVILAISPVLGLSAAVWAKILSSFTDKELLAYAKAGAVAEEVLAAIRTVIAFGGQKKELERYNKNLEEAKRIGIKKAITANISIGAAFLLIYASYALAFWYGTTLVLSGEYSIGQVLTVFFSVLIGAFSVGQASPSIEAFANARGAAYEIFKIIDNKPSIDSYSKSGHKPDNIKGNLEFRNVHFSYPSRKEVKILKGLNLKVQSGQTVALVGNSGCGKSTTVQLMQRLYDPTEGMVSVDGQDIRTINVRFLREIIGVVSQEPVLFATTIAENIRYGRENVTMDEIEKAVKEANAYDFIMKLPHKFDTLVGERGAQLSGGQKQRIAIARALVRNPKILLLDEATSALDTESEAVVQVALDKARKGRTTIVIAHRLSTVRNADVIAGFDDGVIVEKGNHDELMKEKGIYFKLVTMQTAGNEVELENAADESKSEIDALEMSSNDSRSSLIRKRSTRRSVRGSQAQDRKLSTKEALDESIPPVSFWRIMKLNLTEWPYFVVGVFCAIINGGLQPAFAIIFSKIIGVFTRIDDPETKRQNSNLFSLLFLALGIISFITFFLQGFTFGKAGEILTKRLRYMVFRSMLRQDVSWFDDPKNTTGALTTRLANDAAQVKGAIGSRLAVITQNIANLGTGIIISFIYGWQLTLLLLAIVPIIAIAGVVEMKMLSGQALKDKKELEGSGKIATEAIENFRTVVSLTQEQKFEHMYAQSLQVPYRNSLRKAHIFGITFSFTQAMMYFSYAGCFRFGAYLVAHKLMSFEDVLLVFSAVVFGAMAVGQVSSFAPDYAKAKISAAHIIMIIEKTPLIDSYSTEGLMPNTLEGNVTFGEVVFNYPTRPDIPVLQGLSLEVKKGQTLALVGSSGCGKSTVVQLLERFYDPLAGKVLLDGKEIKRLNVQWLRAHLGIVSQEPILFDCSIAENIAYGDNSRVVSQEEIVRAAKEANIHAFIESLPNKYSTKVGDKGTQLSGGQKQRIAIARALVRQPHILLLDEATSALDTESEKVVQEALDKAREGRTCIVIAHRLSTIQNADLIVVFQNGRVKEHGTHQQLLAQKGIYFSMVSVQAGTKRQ

In the case of `Cn1cc(-c2ccncc2)c(-c2ccc(OCc3ccc4ncccc4n3)cc2)n1` [Example 1, 2-((4-(1-methyl-4-(pyridin-4-yl)-1H-pyrazol-3-yl)phenoxy)methyl)-1,5-naphthyridine], the IC50 at PDE10A came to 1050 pM.
For the compound `FCCn1cc(-c2ccncc2)c(-c2ccc(OCc3ccc4ncccc4n3)cc2)n1` [Example 2, 2-((4-(1-(2-fluoroethyl)-4-(pyridin-4-yl)-1H-pyrazol-3-yl)phenoxy)methyl)-1,5-naphthyridine], the IC50 at PDE10A is 200 pM. Besides, the “Free B/P (ratio of free brain concentration divided by free plasma concentration)” value was found to be 0.20 in [1] (3 min after dose) and 0.13 in [1] (5 min after dose). Further, the “Free [brain]” value in [1] (3 min after dose) was 0.692 ng/g; in data set [1] (5 min after dose), 0.184 ng/g. In addition, on P-gp, the efflux ratio was 1.95. Besides, the logD in data set [2] was 3.71. Moreover, the results for the half-life (in “Rat hepatocyte half-life”; in data set [3]; in data set [4]) were 12 min, 79 min and 24 min, respectively. For the same compound, the “human hepatocyte half-life compared with MP-10, JNJ-41510417 and Janssen B-3” value in data set [3] (human Hepatocyte T1/2) is “significantly longer human hepatocyte half-lives”.
For the compound `FCCn1cc(-c2ccncc2)c(-c2ccc(OCc3nc4ccccc4o3)cc2)n1` [Example 3, 2-((4-(1-(2-fluoroethyl)-4-(pyridin-4-yl)-1H-pyrazol-3-yl)phenoxy)methyl)benzo[d]oxazole], the IC50 on PDE10A stood at 4700 pM.
On to `Cn1cc(-c2ccncc2)c(-c2ccc(OCc3nc4ccccc4c(=O)n3C)cc2)n1` [Example 4, 3-methyl-2-((4-(1-methyl-4-(pyridin-4-yl)-1H-pyrazol-3-yl)phenoxy)methyl)quinazolin-4(3H)-one], for which the half-inhibitory concentration (IC50) at PDE10A amounted to 2000 pM.
The same measure, in the same setting: under `FCCn1cc(-c2ccncc2)c(-c2ccc(OCc3ncc4ccccc4n3)cc2)n1` [Example 9, 2-((4-(1-(2-fluoroethyl)-4-(pyridin-4-yl)-1H-pyrazol-3-yl)phenoxy)methyl)quinazoline] stands 180 pM.
Take `FCCn1cc(-c2ccncc2)c(-c2ccc(OCc3ccc4ccccc4n3)cc2)n1` [JNJ-41510417, reference compound]: the IC50 on PDE10A turned out to be 630 pM.
Take `Cc1cnc(COc2ccc(-c3nn(CCF)cc3-c3ccncc3)cc2)c(C)c1` [Janssen B-3, reference compound]: on PDE10A, the IC50 is 980 pM.
On to `Cn1cc(-c2ccncc2)c(-c2ccc(OCc3ccc4ccccc4n3)cc2)n1` [MP-10, reference compound], for which the “Free [brain]” value came out at 0.054 ng/g in data set [1] (3 min after dose) and 0.098 ng/g in data set [1] (5 min after dose). The logD in data set [2] was 4.28. In addition, the half-life was 13 min in “Rat hepatocyte half-life”, 54.9 min in data set [3] and 7 min in data set [4].
As for `COc1ccc(Cc2nccc3cc(OC)c(OC)cc23)cc1OC` [Papaverine, papaverine], in the data set on rats [5] (alone), the “catalepsy on its own” value is listed as “did not cause catalepsy on its own”. Further, in the data set with rats [5] (with haloperidol), the “effect on haloperidol-induced catalepsy” value is on record as “potentiated the cataleptic effect”. In addition, the PCP-induced hyperactivity entry in the data set on rats [6] is “reduced hyperactivity”. The “reduction of amphetamine-induced hyperactivity” value in the data set on rats [7] is “insignificant”.
